Columns and labels:
human NOX1 (hNOX1) = biological target: T1, human NOX1 (hNOX1) (Homo sapiens, UniProt Q9Y5S8); experiment: NOX1 inhibition assay (L-012), HEK293 cells stably overexpressing human NOX1; assay type: cell-based; settings: HEK293-hNOX1, PMA stimulated
T1 construct: pLV-CMV-hNOX1-puro (NM_007052.5); host or cells: HEK293 (CLS GmbH), lentiviral transduction
T1 sequence (Q9Y5S8 1-564): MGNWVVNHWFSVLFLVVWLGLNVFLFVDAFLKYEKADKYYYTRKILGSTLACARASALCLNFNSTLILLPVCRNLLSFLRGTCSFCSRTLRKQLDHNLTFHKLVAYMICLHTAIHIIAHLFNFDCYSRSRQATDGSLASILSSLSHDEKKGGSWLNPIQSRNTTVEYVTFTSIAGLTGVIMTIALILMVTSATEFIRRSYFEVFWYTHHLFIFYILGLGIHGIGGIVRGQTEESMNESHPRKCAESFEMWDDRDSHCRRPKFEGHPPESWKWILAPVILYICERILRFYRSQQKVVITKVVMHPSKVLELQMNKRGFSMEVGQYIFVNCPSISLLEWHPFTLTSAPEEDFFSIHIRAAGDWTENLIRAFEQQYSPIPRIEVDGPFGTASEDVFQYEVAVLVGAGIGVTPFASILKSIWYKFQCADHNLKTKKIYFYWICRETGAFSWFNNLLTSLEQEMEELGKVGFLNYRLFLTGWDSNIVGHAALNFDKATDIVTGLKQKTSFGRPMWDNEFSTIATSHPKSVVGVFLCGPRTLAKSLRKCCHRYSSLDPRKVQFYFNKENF
T1 sequence (P13498 2-195 partner limits assumed): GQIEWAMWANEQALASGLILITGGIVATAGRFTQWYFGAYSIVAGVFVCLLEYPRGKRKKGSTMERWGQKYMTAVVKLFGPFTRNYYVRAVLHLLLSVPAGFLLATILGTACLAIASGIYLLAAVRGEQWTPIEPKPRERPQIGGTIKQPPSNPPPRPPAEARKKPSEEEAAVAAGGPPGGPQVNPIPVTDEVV
Excerpt: (§1) Plasmids are Purchased from Vectorbuilder. • for HEK-hNOX1 all necessary subunits are cloned accordingly: • pLV-CMV-hNOX1-puro (NM_007052.5) • pLV-CMV-hNOXO1-blas (NM_172168.3) • pLV-CMV-hp22phox-hygro (NM_000101.4) • pLV-CMV-hNOXA1-neo (NM_006647.2) • for HEK-hNOX3 • pLV-CMV-hNOX3-puro (NM_015718.3)
(§2) 3rd generation lentiviral particles are produced in HEK293 suspension cells by transient transfection of three helper and expression plasmids. Crucial lentivirus supernatants are harvested, clarified by filtration and concentrated by precipitation. Lentivirus titers are determined in transducing units in (TU/mL) by transduction of HT1080 cells and colony forming assay. Parental HEK293 cells, purchased from CLS GmbH, are transduced with replication-incompetent 3rd generation lentiviral particles (MOI 2) and expanded for at least 2 weeks before cryopreservation of tested lots. During cultivation, medium is changed three times per week and cells are sub-cultured at least once per week. Selection antibiotics are added according to the plasmids (1 μg/ml puromycin, 1.5 μg/ml blasticidin, 200 μg/ml G418 and 100 μg/ml hygromycin).
Evaluation of the NOX4 inhibitors on NOX1 activity is assessed in HEK293 cells stably overexpressing human NOX1 (hNOX1).
Lastly, 8-amino-5-chloro-2,3-dihydro-7-phenyl-pyrido[3,4-d]pyridazine-1,4-dione sodium salt (L-012, CAS 143556-24-5) is added at 400 μM to all wells, and cells are incubated in an incubator for an additional 3 h. Afterwards luminescence is measured with a SpectraMax Paradigm Microplate Reader.

human NOX3 (hNOX3) = biological target: T2, human NOX3 (hNOX3) (Homo sapiens, UniProt Q9HBY0); experiment: NOX3 inhibition assay (L-012), HEK293 cells stably overexpressing human NOX3; assay type: cell-based; settings: HEK293-hNOX3, PMA stimulated
T2 construct: pLV-CMV-hNOX3-puro (NM_015718.3); host or cells: HEK293 (CLS GmbH), lentiviral transduction
T2 sequence (Q9HBY0 1-568): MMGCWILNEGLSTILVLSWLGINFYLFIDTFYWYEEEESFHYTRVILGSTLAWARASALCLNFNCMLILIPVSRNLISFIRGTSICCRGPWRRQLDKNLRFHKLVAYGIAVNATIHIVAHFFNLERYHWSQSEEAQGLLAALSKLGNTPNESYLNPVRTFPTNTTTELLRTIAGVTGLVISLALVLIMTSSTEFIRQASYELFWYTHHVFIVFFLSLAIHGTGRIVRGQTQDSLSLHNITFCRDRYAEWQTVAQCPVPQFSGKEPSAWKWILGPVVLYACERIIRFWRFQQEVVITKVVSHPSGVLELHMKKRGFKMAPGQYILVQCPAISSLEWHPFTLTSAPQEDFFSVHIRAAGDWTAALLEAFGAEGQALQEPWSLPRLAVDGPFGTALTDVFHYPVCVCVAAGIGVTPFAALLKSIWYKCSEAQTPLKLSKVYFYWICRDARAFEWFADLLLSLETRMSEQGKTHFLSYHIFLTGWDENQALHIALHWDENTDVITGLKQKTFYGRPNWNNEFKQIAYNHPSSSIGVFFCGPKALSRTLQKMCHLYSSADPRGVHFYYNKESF
T2 sequence (P13498 2-195 partner limits assumed): T1 sequence (P13498 2-195 partner limits assumed)
Excerpt: as §1, §2
Evaluation of the NOX4 inhibitors on NOX3 activity is assessed in HEK293 cells stably overexpressing human NOX3 (hNOX3).
Cells are seeded in 384 well plates for 2 days. […] Cells are then stimulated with PMA at 0.1 μM to induce NOX3-dependent ROS production. […] Luminescence is measured with an PHERAstar multimode reader.

human NOX4 (hNOX4) = biological target: T3, human NOX4 (hNOX4) (Homo sapiens, UniProt Q9NPH5); experiment: cell-based
T3 sequence (Q9NPH5 1-578): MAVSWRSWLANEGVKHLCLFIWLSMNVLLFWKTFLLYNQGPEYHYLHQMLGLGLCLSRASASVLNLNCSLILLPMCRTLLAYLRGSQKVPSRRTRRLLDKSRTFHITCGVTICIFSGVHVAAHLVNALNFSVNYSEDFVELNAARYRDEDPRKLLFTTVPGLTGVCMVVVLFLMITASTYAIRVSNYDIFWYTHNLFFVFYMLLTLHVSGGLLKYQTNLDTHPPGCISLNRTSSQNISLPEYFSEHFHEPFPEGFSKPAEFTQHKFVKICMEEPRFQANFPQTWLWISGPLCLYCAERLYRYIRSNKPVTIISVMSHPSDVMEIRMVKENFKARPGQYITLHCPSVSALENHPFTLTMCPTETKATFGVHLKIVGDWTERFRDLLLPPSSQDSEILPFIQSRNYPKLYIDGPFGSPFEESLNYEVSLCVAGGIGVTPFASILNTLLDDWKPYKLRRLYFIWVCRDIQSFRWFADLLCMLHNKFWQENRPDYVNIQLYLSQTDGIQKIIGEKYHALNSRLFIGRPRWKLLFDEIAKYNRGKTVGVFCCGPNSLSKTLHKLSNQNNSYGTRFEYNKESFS
T3 sequence (P13498 2-195 partner limits assumed): T1 sequence (P13498 2-195 partner limits assumed)
Procedure: The synthetic gene phNOX4_DNA3_1_Zeo (Accession: AAF68973) is assembled from synthetic oligonucleotides and/or PCR products. The fragment is cloned into pcDNA3.1_Zeo_A011 using NheI and XhoI cloning sites. The plasmid DNA is purified from transformed bacteria and its concentration is determined by UV spectroscopy. The final construct is verified by sequencing. The plasmid is transfected via electroporation (Amaxa electroporation device) in combination with Nucleofector Kit V. Selection of NOX4 overexpressing genes is achieved using selection antibiotic Zeocin.
The inhibitory activity of the example compounds of the invention is determined using the following procedure:
Cells are cultured in the Dulbecco's Modified Eagle Medium (DMEM) media containing 4.5 g/L glucose supplemented with 10% fetal calf serum and 250 μg/ml Zeocin in an incubator at 37° C. with 5% CO2. For the assay, cells are seeded in 384 well plates.
After incubation Lumigen HyPerBlu™ is added and cells are incubated for additional 30 min at 24° C. in a humidified incubator. Next, luminescence is measured using an Envision Multimode Plate reader to determine levels of produced H2O2 in the wells.

IC50 (human NOX1 (hNOX1)) [µM] | IC50 (human NOX3 (hNOX3)) [µM] | IC50 (human NOX4 (hNOX4)) [µM] | Structure (SMILES)
22.9 | > 100 | 0.06 | O=c1c2scnc2nc(SCc2c(F)cc(F)cc2F)n1-c1cnc(O)c(F)c1 [Example 31, 6-(5-Fluoro-6-hydroxypyridin-3-yl)-5-((2,4,6-trifluorobenzyl)thio)thiazolo[4,5-d]-pyrimidin-7(6H)-one]
> 100 | 38 | 0.04 | O=c1c2scnc2nc(SCc2ccc(C(F)(F)F)cc2)n1-c1cnc(O)c(F)c1 [Example 32, 6-(5-Fluoro-6-hydroxypyridin-3-yl)-5-((4-(trifluoromethyl)benzyl)thio)thiazolo[4,5-d]pyrimidin-7(6H)-one]
35.5 | > 100 | 0.029 | O=c1c2scnc2nc(SCc2ccc(Cl)cc2)n1-c1cnc(O)c(F)c1 [Example 33]
14.7 | 63.6 | 0.029 | O=c1c2scnc2nc(SCc2ccc(Br)cc2F)n1-c1cnc(O)c(F)c1 [Example 34]
> 100 | 39.9 | 0.033 | O=c1c2scnc2nc(SCc2ccc(Cl)cc2F)n1-c1cnc(O)c(F)c1 [Example 35]
> 100 | 87.9 | 0.034 | Cc1cc(F)ccc1CSc1nc2ncsc2c(=O)n1-c1cnc(O)c(F)c1 [Example 36]
18.8 | 70.4 | 0.034 | Cc1cc(Cl)ccc1CSc1nc2ncsc2c(=O)n1-c1cnc(O)c(F)c1 [Example 37]
> 100 | > 100 | 0.048 | O=c1c2scnc2nc(SCc2ccc(F)cc2F)n1-c1cnc(O)c(F)c1 [Example 38]
24.5 | 56.2 | 0.056 | O=c1c2scnc2nc(SCc2ccc(Cl)cc2Cl)n1-c1cnc(O)c(F)c1 [Example 39]
32.9 | 39.2 | 0.059 | Cc1c(F)cccc1CSc1nc2ncsc2c(=O)n1-c1cnc(O)c(F)c1 [Example 40]
9.8 | 32.3 | 0.06 | O=c1c2scnc2nc(SCc2c(F)cc(F)cc2Cl)n1-c1cnc(O)c(F)c1 [Example 41]
5.6 | 46.4 | 0.062 | O=c1c2scnc2nc(SCc2ccc(C(F)(F)F)cc2F)n1-c1cnc(O)c(F)c1 [Example 42]
> 100 | > 100 | 0.063 | Cc1cc(F)cc(C)c1CSc1nc2ncsc2c(=O)n1-c1cnc(O)c(F)c1 [Example 43]
43.2 | 73.1 | 0.063 | O=c1c2scnc2nc(SCc2ccc(F)cc2Br)n1-c1cnc(O)c(F)c1 [Example 44]
30.9 | 71.5 | 0.113 | O=c1c2scnc2nc(SCc2c(F)ccc(F)c2F)n1-c1cnc(O)c(F)c1 [Example 45]
48.4 | 56.4 | 0.13 | O=c1c2scnc2nc(SCc2ccc(C(F)(F)F)cc2Cl)n1-c1cnc(O)c(F)c1 [Example 46]
4.9 | 18.8 | 0.426 | N#Cc1cc(-n2c(SCc3c(F)cc(F)cc3F)nc3ncsc3c2=O)cnc1O [Example 47, 2-Hydroxy-5-(7-oxo-5-((2,4,6-trifluorobenzyl)thio)thiazolo[4,5-d]pyrimidin-6(7H)-yl)-nicotinonitrile]
36.7 | > 100 | 0.201 | O=c1c2scnc2nc(SCc2c(F)cc(F)cc2F)n1-c1cnc(O)c(Cl)c1 [Example 48, 6-(5-Chloro-6-hydroxypyridin-3-yl)-5-((2,4,6-trifluorobenzyl)thio)thiazolo[4,5-d]pyri-midin-7(6H)-one]
> 100 | > 100 | 0.045 | O=c1c2scnc2nc(SCc2c(F)cc(F)cc2F)n1-c1cnc(O)cc1F [Example 49, 6-(4-Fluoro-6-hydroxypyridin-3-yl)-5-((2,4,6-trifluorobenzyl)thio)thiazolo[4,5-d]pyrimidin-7(6H)-one]
27.6 | 64.7 | 0.047 | O=c1c2scnc2nc(SCc2c(F)cc(F)cc2F)n1-c1ccc(O)nc1F [Example 50, 6-(2-Fluoro-6-hydroxypyridin-3-yl)-5-((2,4,6-trifluorobenzyl)thio)thiazolo[4,5-d]-pyrimidin-7(6H)-one]
3 | 6.4 | 0.051 | O=c1c2scnc2nc(SCc2c(F)cc(F)cc2F)n1-c1cc(F)c(O)nc1F [Example 51, 6-(2,5-Difluoro-6-hydroxypyridin-3-yl)-5-((2,4,6-trifluorobenzyl)thio)thiazolo[4,5-d]-pyrimidin-7(6H)-one]
21.2 | 15.5 | 0.052 | O=c1c2scnc2nc(SCc2c(F)cc(F)cc2F)n1-c1cnc(O)c(F)c1F [Example 52, 6-(4,5-Difluoro-6-hydroxypyridin-3-yl)-5-((2,4,6-trifluorobenzyl)thio)thiazolo[4,5-d]-pyrimidin-7(6H)-one]
> 100 | > 100 | 0.116 | O=c1c2scnc2nc(SCc2ccc(Cl)cc2F)n1-c1cnc(O)nc1 [Example 53, 5-((4-Chloro-2-fluorobenzyl)thio)-6-(2-hydroxypyrimidin-5-yl)thiazolo[4,5-d]pyrimidin-7(6H)-one]
16.5 | > 100 | 0.116 | Cc1cc(F)cc(C)c1CSc1nc2ncsc2c(=O)n1-c1cnc(O)nc1 [Example 55]
2.7 | > 100 | 0.153 | O=c1c2scnc2nc(SCc2ccc(Cl)cc2)n1-c1cnc(O)nc1 [Example 56]

Source: patent publication US20240327429A1, “[1,3]Thiazolo[4,5-d]-pyrimidon-7-ones as inhibitors of NOX4” (Boehringer Ingelheim International GmbH, priority 2023, published 2024)
